Test results from patent US20250115598A1 (Anaxis Pharma Pty Ltd, priority 2021, published 2025).
pIC50, pKd: −log10 of the molar value.

Legend:
human MLKL (full length) = human MLKL (full length) (Homo sapiens (Human), UniProt Q8NB16); assay: KINOMEscan binding assay, human MLKL (full length); conditions: hMLKL, Table 25; read-out: MLKL (KD)
In short: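 Compound dilutions (11 points, 3-fold, mostly from 30,000 nM, 1% DMSO final) competed with immobilized ligand for DNA- or phage-tagged protein, and bead-bound protein was measured by qPCR. Kd values came from Hill-equation fits with slope −1 (Levenberg-Marquardt).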

endogenous MLKL in MDF = endogenous MLKL in MDF (Mus musculus (Mouse), UniProt Q9D2Y4); assay: Degradation assay: endogenous MLKL in MDF (western blot); conditions: MDF cells, 24 h incubation with compound, MLKL adjusted for loading with GAPDH, normalized to DMSO only control, read-out: Degradation of endogenous MLKL in MDF (DC50 cell-based assay)
In short: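 MDF (seeded the day before) or U937 cells were treated 24 h at 37 °C, 10% CO2 with compound at 10, 2, 0.4, 0.08 and 0.016 μM final. Endogenous MLKL was quantified by western blot (anti-MLKL 3H1), normalized to GAPDH. Percent degradation was taken relative to DMSO control.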

[1] = system: Immortalised Mouse Dermal Fibroblasts (MDFs); assay: Cellular assay: inhibition of TSI induced necroptosis, CellTitre-Glo viability; conditions: Mus musculus, Fibroblast; MDF, 3 hours TSI cocktail, Table 27; read-out: Inhibition of TSI-induced necroptosis (IC50 cell-based assay) in MDF
In short: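 Immortalised mouse dermal fibroblasts (2200 cells/well) pretreated 30 min with compound, 10-point 1:3 series from 36 μM, 0.3% DMSO. Then 3 h at 37° C. with TNF (100 ng/ml), Smac mimetic (500 nM) and IDN-6556 (10 μM). CellTiter-Glo luminescence normalised to DMSO (100%) and DMSO+TSI (0%); IC50 from 4-parameter logistic fit.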

endogenous MLKL in U937 = endogenous MLKL in U937 (Homo sapiens (Human), UniProt Q8NB16); assay: Degradation assay: endogenous MLKL in U937 (western blot); conditions: U937, 24 h incubation, read-out: Degradation of endogenous MLKL in U937 (DC50 cell-based assay)
Procedure: Degradation Assay: Screening Compounds Procedure to Evaluate the Activity of Compounds in Degrading Endogenous MLKL in Human and Mouse Cell
The mouse dermal fibroblast (MDF) cell line was seeded the day before the experiment in a 24-well plate at a cell density of […] per well in a volume of 0.5 mL per well and left to attach overnight. The human monocyte cell line (U937) was seeded on the day of the experiment in a 24-well plate at a cell density of […] per well in a volume of 0.5 mL per well.
The compound was diluted in DMSO with a starting concentration of 10 mM and titrated stepwise with a dilution of 1:5. 0.5 μL of the compound dilution was added to the appropriate well to achieve a final concentration of 10; 2; 0.4; 0.08 and 0.016 μM. A DMSO only well was included as control.
The cells were incubated for 24 h in the presence of the compound at 37° C. and 10% CO2.
After the 24 h incubation period, the medium was removed and cells washed with 0.5 mL PBS. The cells were then lysed directly in 60 μL of 1×SDS gel loading buffer.
The cell lysate was heat-denatured at […] for 10 min. 10 μL of lysate per well were run on 18-well 4-15% Criterion TGX stain free gels (BIO-RAD). The proteins were then transferred onto nitrocellulose membrane with a wet transfer protocol in the Criterion Blotter (BIO-RAD).
Membranes were blocked with 5% skim milk in TBST. Primary antibody against MLKL (clone 3H1, MABC604 Merck) was used at 1:2000 dilution in TBST with 1% BSA and left shaking over night at 4° C. After washes with TBST, the membranes were incubated with goat anti-rat IgG HRP-conjugated antibody (Southern Biotech) in 1% skim milk TBST at 1:10000 dilution for 1 h at room temperature. After TBST washes the bands were imaged on the ChemiDoc MP Imaging System (BIO-RAD) with Immobilion Western Chemiluminescent HRP Substrate Forte (Millipore). The loading control GAPDH was probed for with rabbit anti-GAPDH (CST 14C10) at 1:2000 dilution in 1% BSA TBST over night at 4° C. TBST washes were followed by incubation with goat anti-rabbit IgG HRP-conjugated antibody (Southern Biotech) in 1% skim milk TBST at 1:10000 dilution for 1 h at room temperature followed by TBST washes. The signal was detected as described above.
The band intensity was measured in the ImageLab Software (BIO-RAD) and the MLKL values adjusted for loading with GAPDH. The percentage of degradation was calculated by normalizing the compound treated values to the DMSO only control.

Chain of endogenous MLKL in U937 (Q8NB16 whole entry): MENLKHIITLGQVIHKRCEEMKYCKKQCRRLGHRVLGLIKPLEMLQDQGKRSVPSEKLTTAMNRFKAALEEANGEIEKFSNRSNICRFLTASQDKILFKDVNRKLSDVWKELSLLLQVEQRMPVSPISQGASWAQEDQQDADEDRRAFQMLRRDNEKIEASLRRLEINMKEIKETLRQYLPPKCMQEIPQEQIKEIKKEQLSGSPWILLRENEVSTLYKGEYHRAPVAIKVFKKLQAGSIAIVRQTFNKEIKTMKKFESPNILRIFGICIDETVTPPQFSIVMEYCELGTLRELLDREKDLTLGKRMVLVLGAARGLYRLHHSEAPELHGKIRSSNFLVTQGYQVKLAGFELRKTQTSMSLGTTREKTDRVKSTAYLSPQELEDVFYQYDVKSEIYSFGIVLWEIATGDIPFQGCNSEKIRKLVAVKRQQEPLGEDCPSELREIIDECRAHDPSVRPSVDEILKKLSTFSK
Chain of human MLKL (full length) (Q8NB16 whole entry): as above
Chain of endogenous MLKL in MDF (Q9D2Y4 whole entry): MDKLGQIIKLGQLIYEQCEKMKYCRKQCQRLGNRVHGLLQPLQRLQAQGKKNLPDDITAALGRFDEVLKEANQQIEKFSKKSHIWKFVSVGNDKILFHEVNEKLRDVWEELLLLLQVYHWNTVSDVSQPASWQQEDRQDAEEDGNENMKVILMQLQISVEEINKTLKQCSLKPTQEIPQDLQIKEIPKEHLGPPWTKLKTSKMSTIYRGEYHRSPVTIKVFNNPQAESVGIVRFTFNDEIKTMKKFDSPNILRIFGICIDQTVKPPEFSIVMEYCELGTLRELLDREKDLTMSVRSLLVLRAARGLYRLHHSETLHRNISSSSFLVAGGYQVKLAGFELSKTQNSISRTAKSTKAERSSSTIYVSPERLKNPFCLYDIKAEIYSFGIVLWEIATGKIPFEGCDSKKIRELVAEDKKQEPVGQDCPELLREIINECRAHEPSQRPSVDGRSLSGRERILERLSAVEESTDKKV

In the case of `C[C@H](Oc1cc(-c2nn(C)c3c(-c4cnn(C5CCN(C[C@H]6C[C@H](Nc7cccc8c7C(=O)N(C7CCC(=O)NC7=O)C8=O)C6)CC5)c4)cnc(N)c23)ccc1NS(=O)(=O)C(F)F)c1ccc(F)cc1` (stereo partly drawn) [Compound 1108, N-(4-{4-amino-1-methyl-7-[1-(1-{[(trans)-3-{[2-(2,6-dioxopiperidin-3-yl)-1,3-dioxo-2,3-dihydro-1H-isoindol-4-yl]amino}cyclobutyl]methyl}piperidin-4-yl)-1H-pyrazol-4-yl]-1H-pyrazolo[4,3-c]pyridin-3-yl}-2-[(1S)-1-(4-fluorophenyl)ethoxy]phenyl)-1,1-difluoromethane-sulfonamide], the pKd (human MLKL (full length)) was > 8.00, the DC50 (endogenous MLKL in MDF) was < 1 µM and the pIC50 [1] was > 6.00. For the same molecule, the DC50 (endogenous MLKL in U937) was 1 to 10 µM.

In the case of `C[C@H](Oc1cc(-c2nn(C)c3c(-c4cnn(C5CCN(C(=O)N6CC(Nc7cccc8c7C(=O)N(C7CCC(=O)NC7=O)C8=O)C6)CC5)c4)cnc(N)c23)ccc1NS(=O)(=O)C(F)F)c1ccc(F)cc1` (stereo partly drawn) [Compound 1124, N-[4-(4-amino-7-{1-[1-(3-{[2-(2,6-dioxopiperidin-3-yl)-1,3-dioxo-2,3-dihydro-1H-isoindol-4-yl]amino}azetidine-1-carbonyl)piperidin-4-yl]-1H-pyrazol-4-yl}-1-methyl-1H-pyrazolo[4,3-c]pyridin-3-yl}-2-[(1S)-1-(4-fluorophenyl)ethoxy]phenyl]-1,1-difluoromethanesulfonamide], the DC50 (endogenous MLKL in MDF) was < 1 µM, the pIC50 [1] was > 6.00 and the DC50 (endogenous MLKL in U937) was < 1 µM.

For `C[C@H](Oc1cc(-c2nn(C)c3c(-c4cnn(C5CCN(C(=O)COc6ccc7c(c6)C(=O)N(C6CCC(=O)NC6=O)C7=O)CC5)c4)cnc(N)c23)ccc1NS(=O)(=O)C(F)F)c1ccc(F)cc1` (some centres unmarked) [Compound 1085, N-[4-(4-amino-7-{1-[1-(2-{[2-(2,6-dioxopiperidin-3-yl)-1,3-dioxo-2,3-dihydro-1H-isoindol-5-yl]oxy}acetyl)piperidin-4-yl]-1H-pyrazol-4-yl}-1-methyl-1H-pyrazolo[4,3-c]pyridin-3-yl)-2-[(1 S)-1-(4-fluorophenyl)ethoxy]phenyl]-1,1-difluoromethanesulfonamide], the pKd (human MLKL (full length)) was > 8.00, the DC50 (endogenous MLKL in MDF) was 1 to 10 µM and the pIC50 [1] was > 6.00. The DC50 (endogenous MLKL in U937) was < 1 µM.

`C[C@H](Oc1cc(-c2nn(C)c3c(-c4cnn(C5CCN(Cc6ccc(CNc7cccc8c7C(=O)N(C7CCC(=O)NC7=O)C8=O)cc6)CC5)c4)cnc(N)c23)ccc1NS(=O)(=O)C(F)F)c1ccc(F)cc1` (stereo partly drawn) [Compound 1115, N-(4-{4-amino-7-[1-(1-{[4-({[2-(2,6-dioxopiperidin-3-yl)-1,3-dioxo-2,3-dihydro-1H-isoindol-4-yl]amino}methyl)phenyl]methyl}piperidin-4-yl)-1H-pyrazol-4-yl]-1-methyl-1H-pyrazolo[4,3-c]pyridin-3-yl}-2-[(1S)-1-(4-fluorophenyl)ethoxy]phenyl)-1,1-difluoromethanesulfonamide] was tested, and the pKd (human MLKL (full length)) was 6.00 to 8.00, the DC50 (endogenous MLKL in MDF) was < 1 µM and the pIC50 [1] was > 6.00. For the same molecule, the DC50 (endogenous MLKL in U937) was < 1 µM.

In the case of `Cc1ncsc1-c1ccc(CNC(=O)[C@@H]2C[C@@H](O)CN2C(=O)[C@@H](NC(=O)C2(F)CC2)C(C)(C)C)c(OCCCCCn2cc(-c3cnc(N)c4c(-c5ccc(NS(=O)(=O)C(F)F)c(O[C@@H](C)c6ccc(F)cc6)c5)nn(C)c34)cn2)c1` [Compound 1068, (2S,4R)-N-[(2-{[5-(4-{4-amino-3-[4-(difluoromethanesulfonamido)-3-[(1S)-1-(4-fluorophenyl)ethoxy]phenyl]-1-methyl-1H-pyrazolo[4,3-c]pyridin-7-yl}-1H-pyrazol-1-yl)pentyl]oxy}-4-(4-methyl-1,3-thiazol-5-yl)phenyl)methyl]-1-[(2S)-2-[(1-fluorocyclopropyl)formamido]-3,3-dimethylbutanoyl]-4-hydroxypyrrolidine-2-carboxamide], the pKd (human MLKL (full length)) was 6.00 to 8.00, the DC50 (endogenous MLKL in MDF) was < 1 µM and the pIC50 [1] was 5.00 to 6.00. For the same molecule, the DC50 (endogenous MLKL in U937) was 1 to 10 µM.

In the case of `Cn1nc(-c2ccc(NS(=O)(=O)C(F)F)c(F)c2)c2c(N)ncc(-c3cnn(C4CCN(C(=O)CCC5CCN(c6cccc7c6C(=O)N(C6CCC(=O)NC6=O)C7=O)CC5)CC4)c3)c21` (centres unmarked) [Compound 1113, N-[4-(4-amino-7-{1-[1-(3-{1-[2-(2,6-dioxopiperidin-3-yl)-1,3-dioxo-2,3-dihydro-1H-isoindol-4-yl]piperidin-4-yl}propanoyl)piperidin-4-yl]-1H-pyrazol-4-yl}-1-methyl-1H-pyrazolo[4,3-c]pyridin-3-yl}-2-fluorophenyl]-1,1-difluoromethanesulfonamide], the pKd (human MLKL (full length)) was > 8.00, the DC50 (endogenous MLKL in MDF) was < 1 µM and the pIC50 [1] was 5.00 to 6.00. The DC50 (endogenous MLKL in U937) was < 1 µM.

For `Cc1ncsc1-c1ccc(C(COCC(=O)N2CCC(n3cc(-c4cnc(N)c5c(-c6ccc(NS(=O)(=O)C(F)F)c(O[C@@H](C)c7ccc(F)cc7)c6)nn(C)c45)cn3)CC2)NC(=O)[C@@H]2C[C@@H](O)CN2C(=O)[C@@H](NC(=O)C2(F)CC2)C(C)(C)C)cc1` (stereo partly drawn) [Compound 1104, (2S,4R)—N-(2-{2-[4-(4-{4-amino-3-[4-(difluoromethanesulfonamido)-3-[(1 S)-1-(4-fluorophenyl)ethoxy]phenyl]-1-methyl-1H-pyrazolo[4,3-c]pyridin-7-yl}-1H-pyrazol-1-yl)piperidin-1-yl]-2-oxoethoxy}-1-[4-(4-methyl-1,3-thiazol-5-yl)phenyl]ethyl)-1-[(2S)-2-[(1-fluorocyclopropyl)formamido]-3,3-dimethylbutanoyl]-4-hydroxypyrrolidine-2-carboxamide], the DC50 (endogenous MLKL in MDF) was < 1 µM, the pIC50 [1] was 5.00 to 6.00 and the DC50 (endogenous MLKL in U937) was < 1 µM.

For `CCS(=O)(=O)Nc1ccc(-c2nn(C)c3c(-c4cnn(CCCCCCCOc5cccc6c5C(=O)N(C5CCC(=O)NC5=O)C6=O)c4)cnc(N)c23)cc1F` (centres unmarked) [Compound 1059, N-(4-{4-amino-7-[1-(7-{[2-(2,6-dioxopiperidin-3-yl)-1,3-dioxo-2,3-dihydro-1H-isoindol-4-yl]oxy}heptyl)-1H-pyrazol-4-yl]-1-methyl-1H-pyrazolo[4,3-c]pyridin-3-yl}-2-fluorophenyl)ethane-1-sulfonamide], the pKd (human MLKL (full length)) was > 8.00, the DC50 (endogenous MLKL in MDF) was < 1 µM and the DC50 (endogenous MLKL in U937) was < 1 µM.

With `Cc1ncsc1-c1ccc(CNC(=O)[C@@H]2C[C@@H](O)CN2C(=O)[C@@H](NC(=O)COCCCCn2cc(-c3cnc(N)c4c(-c5ccc(NS(=O)(=O)C(F)F)c(O[C@@H](C)c6ccc(F)cc6)c5)nn(C)c34)cn2)C(C)(C)C)cc1` [Compound 1056, (2S,4R)-1-[(2S)-2-{2-[4-(4-{4-amino-3-[4-(difluoromethanesulfonamido)-3-[(1S)-1-(4-fluorophenyl)ethoxy]phenyl]-1-methyl-1H-pyrazolo[4,3-c]pyridin-7-yl}-1H-pyrazol-1-yl)butoxy]acetamido}-3,3-dimethylbutanoyl]-4-hydroxy-N-{[4-(4-methyl-1,3-thiazol-5-yl)phenyl]methyl}pyrrolidine-2-carboxamide] the pKd (human MLKL (full length)) was 6.00 to 8.00, the DC50 (endogenous MLKL in MDF) was 1 to 10 µM and the DC50 (endogenous MLKL in U937) was < 1 µM.
